Patent US8569292B2, “Cyclic inhibitors of 11β-hydroxysteroid dehydrogenase 1” (Vitae Pharmaceuticals, Inc., priority 2008, dated 2013)

Key:
[1] = target: T1, CYP2C9 (Homo sapiens, UniProt P11712); experiment: Biological Test Example 7: CYP2C9 inhibition (naproxen O-demethylation); assay type: in vitro ADME
T1 construct: purchased Invitrogen 2859; host or cells: insect cells infected with baculovirus (microsomes)

[2] = target: T2, 11β-HSD1 (Homo sapiens, UniProt P28845); experiment: Biological Test Example 4: microsomal 11β-HSD1 in the presence of 50% human plasma; details: for Shift: IC50 in Test Example 4 divided by IC50 in Test Example 1
[3] = target: T2, 11β-HSD1; experiment: biochemical; details: for inhibition at 0.1 µM: read-out: Average % inhibition at 100 nM
[4] = target: CYP2C19 (Homo sapiens, UniProt P33261); experiment: Biological Test Example 8: CYP2C19 inhibition (diazepam N-demethylation); assay type: in vitro ADME
[5] = target: CYP3A4 (Homo sapiens, UniProt P08684); experiment: Biological Test Example 6: CYP3A4 inhibition (erythromycin N-demethylation); assay type: in vitro ADME
[6] = Biological Test Example 1 IC50 (nM)
[7] = IC50 Range, Biological Test Example 1

Sequence of CYP2C19 (P33261 whole entry): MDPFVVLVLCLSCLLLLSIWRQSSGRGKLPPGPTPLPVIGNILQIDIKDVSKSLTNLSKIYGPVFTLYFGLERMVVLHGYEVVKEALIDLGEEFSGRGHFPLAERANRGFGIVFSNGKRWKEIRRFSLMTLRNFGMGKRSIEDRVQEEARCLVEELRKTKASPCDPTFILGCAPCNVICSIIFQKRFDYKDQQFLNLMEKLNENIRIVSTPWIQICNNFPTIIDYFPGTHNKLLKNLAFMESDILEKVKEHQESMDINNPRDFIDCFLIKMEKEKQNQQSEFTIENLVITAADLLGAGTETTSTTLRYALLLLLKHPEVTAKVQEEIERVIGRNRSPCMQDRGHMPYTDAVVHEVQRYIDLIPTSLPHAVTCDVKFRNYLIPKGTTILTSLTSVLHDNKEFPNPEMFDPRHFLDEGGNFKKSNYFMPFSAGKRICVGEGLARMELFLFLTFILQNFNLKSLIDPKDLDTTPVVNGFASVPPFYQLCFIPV
T2 sequence (P28845 whole entry): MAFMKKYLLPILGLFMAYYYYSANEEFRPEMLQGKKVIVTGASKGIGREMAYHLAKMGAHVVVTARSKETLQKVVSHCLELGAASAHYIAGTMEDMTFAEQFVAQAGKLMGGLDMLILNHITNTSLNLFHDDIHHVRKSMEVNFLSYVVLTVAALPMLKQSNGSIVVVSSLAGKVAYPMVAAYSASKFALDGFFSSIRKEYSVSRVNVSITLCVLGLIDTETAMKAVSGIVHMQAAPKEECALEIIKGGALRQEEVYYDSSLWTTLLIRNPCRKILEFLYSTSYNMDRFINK
T1 sequence (P11712 whole entry): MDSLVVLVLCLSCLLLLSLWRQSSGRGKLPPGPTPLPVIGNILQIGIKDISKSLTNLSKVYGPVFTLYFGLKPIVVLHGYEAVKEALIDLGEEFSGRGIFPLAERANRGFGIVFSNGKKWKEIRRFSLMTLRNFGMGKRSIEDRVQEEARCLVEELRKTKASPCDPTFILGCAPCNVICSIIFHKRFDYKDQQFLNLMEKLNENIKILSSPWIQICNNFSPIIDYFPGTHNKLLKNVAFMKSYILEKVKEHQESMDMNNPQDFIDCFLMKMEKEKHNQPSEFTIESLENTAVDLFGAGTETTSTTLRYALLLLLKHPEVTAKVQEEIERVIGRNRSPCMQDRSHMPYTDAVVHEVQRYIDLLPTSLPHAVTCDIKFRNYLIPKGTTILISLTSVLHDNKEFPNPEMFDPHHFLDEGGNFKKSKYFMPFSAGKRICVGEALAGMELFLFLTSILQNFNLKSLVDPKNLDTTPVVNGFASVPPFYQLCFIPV
Sequence of CYP3A4 (P08684 whole entry): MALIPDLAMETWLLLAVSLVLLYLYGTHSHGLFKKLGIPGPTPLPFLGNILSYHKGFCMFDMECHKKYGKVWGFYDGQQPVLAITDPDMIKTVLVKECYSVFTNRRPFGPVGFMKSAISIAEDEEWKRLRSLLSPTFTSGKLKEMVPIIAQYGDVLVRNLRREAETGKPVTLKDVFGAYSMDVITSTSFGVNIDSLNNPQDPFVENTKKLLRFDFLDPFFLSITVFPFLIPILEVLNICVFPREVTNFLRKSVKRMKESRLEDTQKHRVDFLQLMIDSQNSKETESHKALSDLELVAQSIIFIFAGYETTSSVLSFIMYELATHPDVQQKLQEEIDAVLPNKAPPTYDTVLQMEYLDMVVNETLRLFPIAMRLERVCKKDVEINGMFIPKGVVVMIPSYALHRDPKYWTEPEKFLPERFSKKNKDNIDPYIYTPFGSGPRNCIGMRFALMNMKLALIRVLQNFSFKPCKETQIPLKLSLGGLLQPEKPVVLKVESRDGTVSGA

## C[C@@H](c1ccc(-c2ccc(C(=O)NC(C)(C)C)cn2)cc1)N1CC[C@](CC(C)(C)C#N)(c2ccccc2)OC1=O [EXAMPLE 3, N-tert-butyl-6-(4-((S)-1-((R)-6-(2-cyano-2-methylpropyl)-2-oxo-6-phenyl-1,3-oxazinan-3-yl)ethyl)phenyl)nicotinamide]
[1]
  IC50: 2.5 µM
[2]
  IC50: 0.0079 µM
  Shift: 8.0
[3]; [6]
  IC50: 1 nM
[3]; [7]
  IC50: < 100 nM
[3]
  inhibition at 0.1 µM: 96.8%
[4]
  IC50: 3 µM
[5]
  IC50: 2.1 µM

## C[C@@H](c1ccc(-c2ccc(C3CC3)nn2)cc1)N1CC[C@](CC(C)(C)O)(c2ccccc2)OC1=O [EXAMPLE 4, (S)-3-((S)-1-(4-(6-cyclopropylpyridazin-3-yl)phenyl)ethyl)-6-(2-hydroxy-2-methylpropyl)-6-phenyl-1,3-oxazinan-2-one]
[1]
  IC50: 19.8 µM
[2]
  IC50: 0.004 µM
  Shift: 5.8
[3]; [6]
  IC50: 0.7 nM
[3]; [7]
  IC50: < 100 nM
[3]
  inhibition at 0.1 µM: 96.3%
[4]
  IC50: 24.2 µM
[5]
  IC50: 19.6 µM

## C[C@@H](c1ccc(-c2ccc(C(=O)NC(C)(C)C)nn2)cc1)N1CC[C@](CC(C)(C)C#N)(c2ccccc2)OC1=O [EXAMPLE 9, N-tert-butyl-6-(4-((S)-1-((R)-6-(2-cyano-2-methylpropyl)-2-oxo-6-phenyl-1,3-oxazinan-3-yl)ethyl)phenyl)pyridazine-3-carboxamide]
[1]
  IC50: > 50 µM
[2]
  IC50: 0.0051 µM
  Shift: 3.9
[3]; [6]
  IC50: 1.3 nM
[3]; [7]
  IC50: < 100 nM
[3]
  inhibition at 0.1 µM: 92.4%
[4]
  IC50: 0.8 µM
[5]
  IC50: 48.9 µM

## C[C@@H](c1ccc(-c2ccc(C(=O)NC3CC3)nn2)cc1)N1CC[C@](CC(C)(C)O)(c2ccccc2)OC1=O [EXAMPLE 10, N-cyclopropyl-6-(4-((S)-1-((S)-6-(2-hydroxy-2-methylpropyl)-2-oxo-6-phenyl-1,3-oxazinan-3-yl)ethyl)phenyl)pyridazine-3-carboxamide]
[1]
  IC50: 21.2 µM
[2]
  IC50: 0.0075 µM
[3]; [6]
  IC50: 2.5 nM
[3]; [7]
  IC50: < 100 nM
[3]
  inhibition at 0.1 µM: 93.6%
[4]
  IC50: 14.5 µM
[5]
  IC50: 34.9 µM

## C[C@@H](c1ccc(-c2ccc(C(=O)NC3CC3)nn2)cc1)N1CC[C@](CC(C)(C)C#N)(c2ccccc2)OC1=O [EXAMPLE 11, 6-(4-((S)-1-((R)-6-(2-cyano-2-methylpropyl)-2-oxo-6-phenyl-1,3-oxazinan-3-yl)ethyl)phenyl)-N-cyclopropylpyridazine-3-carboxamide]
[1]
  IC50: > 50 µM
[2]
  IC50: 0.0034 µM
  Shift: 3.5
[3]; [6]
  IC50: 1 nM
[3]; [7]
  IC50: < 100 nM
[3]
  inhibition at 0.1 µM: 91.6%
[4]
  IC50: 3.7 µM
[5]
  IC50: 8.7 µM

## Cc1nn(C)c(C)c1-c1ccc([C@H](C)N2CC[C@](CC(C)(C)O)(c3ccccc3)OC2=O)cc1 [EXAMPLE 177, (S)-6-(2-Hydroxy-2-methyl-propyl)-6-phenyl-3-{(S)-1-[4-(1,3,5-trimethyl-1H-pyrazol-4-yl)-phenyl]-ethyl}-[1,3]oxazinan-2-one]
[1]
  IC50: 8.8 µM
[4]
  IC50: 17.7 µM
[5]
  IC50: > 50 µM

## C[C@@H](c1ccc(-c2cnn(C)c2)cc1)N1CC[C@](CC(C)(C)O)(c2ccccc2)OC1=O [EXAMPLE 178, (S)-6-(2-Hydroxy-2-methyl-propyl)-3-{(S)-1-[4-(1-methyl-1H-pyrazol-4-yl)-phenyl]-ethyl}-6-phenyl-[1,3]oxazinan-2-one]
[1]
  IC50: 21.3 µM
[4]
  IC50: > 50 µM
[5]
  IC50: > 50 µM

## C[C@@H](c1ccc(-c2nnc(C(F)(F)F)s2)cc1)N1CC[C@](CC(C)(C)O)(c2ccccc2)OC1=O [EXAMPLE 179, (S)-6-(2-Hydroxy-2-methyl-propyl)-6-phenyl-3-{(S)-1-[4-(5-trifluoromethyl-[1,3,4]thiadiazol-2-yl)-phenyl]-ethyl}-[1,3]oxazinan-2-one]
[1]
  IC50: 10.7 µM
[4]
  IC50: 17 µM
[5]
  IC50: 21.1 µM

## Cc1ncc(-c2ccc([C@H](C)N3CC[C@](CC(C)(C)O)(c4ccccc4)OC3=O)cc2)s1 [EXAMPLE 180, (S)-6-(2-Hydroxy-2-methyl-propyl)-3-{(S)-1-[(2-methyl-4-thiazol-5-yl)-phenyl]-ethyl}-6-phenyl-[1,3]oxazinan-2-one]
[1]
  IC50: 9.2 µM
[4]
  IC50: 14.4 µM
[5]
  IC50: 9.8 µM

## Cc1nc(-c2ccc([C@H](C)N3CC[C@](CC(C)(C)O)(c4ccccc4)OC3=O)cc2)sc1C [EXAMPLE 181, (S)-3-{1-[4-(4,5-Dimethyl-thiazol-2-yl)-phenyl]-ethyl}-6-(2-hydroxy-2-methyl-propyl)-6-phenyl-[1,3]oxazinan-2-one]
[1]
  IC50: 5.6 µM
[4]
  IC50: 8.2 µM
[5]
  IC50: 7.8 µM

## C[C@@H](c1ccc(-c2ccc([S+](C)[O-])nc2)cc1)N1CC[C@](CC(C)(C)O)(c2ccccc2)OC1=O (stereo partly drawn) [EXAMPLE 182, (S)-6-(2-Hydroxy-2-methyl-propyl)-3-{(S)-1-[4-(6-methanesulfinyl-pyridin-3-yl)-phenyl]-ethyl}-6-phenyl-[1,3]oxazinan-2-one]
[1]
  IC50: > 50 µM
[4]
  IC50: > 50 µM
[5]
  IC50: > 50 µM

## C[C@@H](c1ccc(-c2ccc(S(C)(=O)=O)nc2)cc1)N1CC[C@](CC(C)(C)O)(c2ccccc2)OC1=O [EXAMPLE 183, (S)-6-(2-Hydroxy-2-methyl-propyl)-3-{(S)-1-[4-(6-methanesulfonyl-pyridin-3-yl)-phenyl]-ethyl}-6-phenyl-[1,3]oxazinan-2-one]
[1]
  IC50: 45.7 µM
[3]; [6]
  IC50: 0.93 nM
[3]; [7]
  IC50: < 100 nM
[3]
  inhibition at 0.1 µM: 96.4%
[4]
  IC50: 47.4 µM
[5]
  IC50: > 50 µM

## C[C@@H](c1ccc(-c2cc([S+](C)[O-])ccn2)cc1)N1CC[C@](CC(C)(C)O)(c2ccccc2)OC1=O (stereo partly drawn) [EXAMPLE 184, (S)-6-(2-Hydroxy-2-methyl-propyl)-3-{(S)-1-[4-(4-methanesulfinyl-pyridin-2-yl)-phenyl]-ethyl}-6-phenyl-[1,3]oxazinan-2-one]
[1]
  IC50: > 50 µM
[4]
  IC50: > 50 µM
[5]
  IC50: > 50 µM

## C[C@@H](c1ccc(-c2cc(S(C)(=O)=O)ccn2)cc1)N1CC[C@](CC(C)(C)O)(c2ccccc2)OC1=O [EXAMPLE 185, (S)-6-(2-Hydroxy-2-methyl-propyl)-3-{(S)-1-[4-(4-methanesulfonyl-pyridin-2-yl)-phenyl]-ethyl}-6-phenyl-[1,3]oxazinan-2-one]
[1]
  IC50: 30 µM
[4]
  IC50: 25.7 µM
[5]
  IC50: 42.9 µM

## C[C@@H](c1ccc(-c2ccc(S(C)(=O)=O)cn2)cc1)N1CC[C@](CC(C)(C)O)(c2ccccc2)OC1=O [EXAMPLE 186, (S)-6-(2-Hydroxy-2-methyl-propyl)-3-{(S)-1-[4-(5-methanesulfonyl-pyridin-2-yl)-phenyl]-ethyl}-6-phenyl-[1,3]oxazinan-2-one]
[1]
  IC50: > 50 µM
[3]; [6]
  IC50: 0.9 nM
[3]; [7]
  IC50: < 100 nM
[3]
  inhibition at 0.1 µM: 95.2%
[4]
  IC50: 48.6 µM
[5]
  IC50: > 50 µM

## C[C@@H](c1ccc(-c2ccnc(S(C)(=O)=O)c2)cc1)N1CC[C@](CC(C)(C)O)(c2ccccc2)OC1=O [EXAMPLE 187, (S)-6-(2-Hydroxy-2-methyl-propyl)-3-{(S)-1-[4-(2-methanesulfonyl-pyridin-4-yl)-phenyl]-ethyl}-6-phenyl-[1,3]oxazinan-2-one]
[1]
  IC50: 25.9 µM
[4]
  IC50: > 50 µM
[5]
  IC50: > 50 µM

## C[C@@H](c1ccc(-c2cncc(S(C)(=O)=O)c2)cc1)N1CC[C@](CC(C)(C)O)(c2ccccc2)OC1=O [EXAMPLE 188, (S)-6-(2-Hydroxy-2-methyl-propyl)-3-{(S)-1-[4-(5-methanesulfonyl-pyridin-3-yl)-phenyl]-ethyl}-6-phenyl-[1,3]oxazinan-2-one]
[1]
  IC50: 21.2 µM
[4]
  IC50: > 50 µM
[5]
  IC50: 42.4 µM

## C[C@@H](c1ccc(-c2cncc([S+](C)[O-])c2)cc1)N1CC[C@](CC(C)(C)O)(c2ccccc2)OC1=O (stereo partly drawn) [EXAMPLE 189, (S)-6-(2-Hydroxy-2-methyl-propyl)-3-{(S)-1-[4-(5-methanesulfinyl-pyridin-3-yl)-phenyl]-ethyl}-6-phenyl-[1,3]oxazinan-2-one]
[1]
  IC50: > 50 µM
[4]
  IC50: > 50 µM
[5]
  IC50: > 50 µM

## C[C@@H](c1ccc(-c2cccc(S(C)(=O)=O)n2)cc1)N1CC[C@](CC(C)(C)O)(c2ccccc2)OC1=O [EXAMPLE 190, (S)-6-(2-Hydroxy-2-methyl-propyl)-3-{(S)-1-[4-(6-methanesulfonyl-pyridin-2-yl)-phenyl]-ethyl}-6-phenyl-[1,3]oxazinan-2-one]
[1]
  IC50: > 50 µM
[4]
  IC50: > 50 µM
[5]
  IC50: 33.7 µM

## C[C@@H](c1ccc(-c2cccc([S+](C)[O-])n2)cc1)N1CC[C@](CC(C)(C)O)(c2ccccc2)OC1=O (stereo partly drawn) [EXAMPLE 191, (S)-6-(2-Hydroxy-2-methyl-propyl)-3-{(S)-1-[4-(6-methanesulfinyl-pyridin-2-yl)-phenyl]-ethyl}-6-phenyl-[1,3]oxazinan-2-one]
[1]
  IC50: > 50 µM
[4]
  IC50: > 50 µM
[5]
  IC50: 36.4 µM

## C[C@@H](c1ccc(-c2cnc(C3CC3)nc2)cc1)N1CC[C@](CC(C)(C)O)(c2ccccc2)OC1=O [EXAMPLE 192, 3-{(S)-1-[4-(2-Cyclopropyl-pyrimidin-5-yl)-phenyl]-ethyl}-(S)-6-(2-hydroxy-2-methyl-propyl)-6-phenyl-[1,3]oxazinan-2-one]
[1]
  IC50: 10.4 µM
[4]
  IC50: 15.5 µM
[5]
  IC50: 11.2 µM

## Cc1nn(C)cc1-c1ccc([C@H](C)N2CC[C@](CC(C)(C)O)(c3ccccc3)OC2=O)cc1 [EXAMPLE 193, 3-{(S)-1-[4-(1,3-Dimethyl-1H-pyrazol-4-yl)-phenyl]-ethyl}-(S)-6-(2-hydroxy-2-methyl-propyl)-6-phenyl-[1,3]oxazinan-2-one]
[1]
  IC50: 24.2 µM
[4]
  IC50: 33.3 µM
[5]
  IC50: 26.6 µM
